“Also recorded” adds a separate entry of the source.
Columns and labels:
[1] = test system: A375P human melanoma cell line; test: Antiproliferative activity to A375P human melanoma cell line; assay type: cell-based; details: for GI50: A375P human melanoma cell line, read-out: A375P (GI50, Unit: μM); for potency against A375P, in words: A375P cell line, comparison with Sorafenib
Experimental: (§1) The antiproliferative activity of the compounds of Examples to A375P human melanoma cell line and U937 human leukemic monocyte lymphoma cell line are evaluated and listed in the following Table 1.

[2] = test system: U937 human leukemic monocyte lymphoma cell line; test: Antiproliferative activity to U937 human leukemic monocyte lymphoma cell line; assay type: cell-based; details: for GI50: U-937, U937 human leukemic monocyte lymphoma cell line, read-out: U937 (GI50, Unit: μM); for potency against U937, in words: U937 cell line, comparison with Sorafenib
Experimental: as §1

C[C@H](O)CNc1nccc(-n2ccnc2Cc2cccc(NC(=O)c3cnn(-c4ccccc4)c3C(F)(F)F)c2)n1 [Example 5, (S)—N-(3-((1-(2-((2-hydroxypropyl)amino)pyrimidin-4-yl)-1H-imidazol-2-yl)methyl)phenyl)-1-phenyl-5-(trifluoromethyl)-1H-pyrazole-4-carboxamide]
GI50 [1]: 6.39 µM
GI50 [2]: 25.8 µM

C[C@H](O)CNc1nccc(-n2ccnc2C(=O)c2ccc(NC(=O)c3cc(N4CCN(C)CC4)cc(C(F)(F)F)c3)cc2)n1 [Example 36, (S)—N-(4-(1-(2-((2-hydroxypropyl)amino)pyrimidin-4-yl)-1H-imidazole-2-carbonyl)phenyl)-3-(4-methylpiperazin-1-yl)-5-(trifluoromethyl)benzamide]
GI50 [1]: > 30 µM
GI50 [2]: 14.7 µM

CNC(=O)c1cc(Oc2ccc(NC(=O)Nc3ccc(Cl)c(C(F)(F)F)c3)cc2)ccn1 [Sorafenib, reference compound]
GI50 [1]: 3.4 µM
GI50 [2]: 2.74 µM

C[C@H](O)CNc1nccc(-n2ccnc2Cc2cccc(NC(=O)c3ccncc3)c2)n1 [Example 10, (S)—N-(3-((1-(2-((2-hydroxypropyl)amino)pyrimidin-4-yl)-1H-imidazol-2-yl)methyl)phenyl)isonicotinamide]
GI50 [1]: 8.92 µM

C[C@H](O)CNc1nccc(-n2ccnc2C(=O)c2cccc(NC(=O)c3cc(N4CCOCC4)cc(C(F)(F)F)c3)c2)n1 [Example 27, (S)—N-(3-(1-(2-((2-hydroxypropyl)amino)pyrimidin-4-yl)-1H-imidazole-2-carbonyl)phenyl)-3-morpholino-5-(trifluoromethyl)benzamide]
GI50 [2]: 4.9 µM

C[C@H](O)CNc1nccc(-n2ccnc2C(=O)c2ccc(NC(=O)Nc3ccc(Cl)c(C(F)(F)F)c3)cc2)n1 [Example 38, (S)-1-(4-chloro-3-(trifluoromethyl)phenyl)-3-(4-(1-(2-((2-hydroxypropyl)amino)pyrimidin-4-yl)-1H-imidazole-2-carbonyl)phenyl)urea]
GI50 [1]: > 30 µM
GI50 [2]: 7.45 µM

C[C@H](O)CNc1nccc(-n2ccnc2Cc2cccc(NC(=O)C(c3ccc(Cl)cc3)c3ccc(Cl)cc3)c2)n1 [Example 17, (S)-2,2-bis(4-chlorophenyl)-N-(3-((1-(2-(2-hydroxypropylamino)pyrimidin-4-yl)-1H-imidazol-2-yl)methyl)phenyl)acetamide]
GI50 [1]: 3.97 µM
GI50 [2]: 3.24 µM

C[C@H](O)CNc1nccc(-n2ccnc2C(=O)c2cccc(NC(=O)c3cccc(C(F)(F)F)c3)c2)n1 [Example 25, (S)—N-(3-(1-(2-((2-hydroxypropyl)amino)pyrimidin-4-yl)-1H-imidazole-2-carbonyl)phenyl)-3-(trifluoromethyl)benzamide]
GI50 [1]: > 30 µM
GI50 [2]: 3.78 µM

C[C@H](O)CNc1nccc(-n2ccnc2Cc2cccc(NC(=O)c3cc(N4CCN(C)CC4)cc(C(F)(F)F)c3)c2)n1 [Example 1, (S)—N-(3-((1-(2-((2-hydroxypropyl)amino)pyrimidin-4-yl)-1H-imidazol-2-yl)methyl)phenyl)-3-(4-methylpiperazin-1-yl)-5-(trifluoromethyl)benzamide]
GI50 [1]: 12.3 µM
GI50 [2]: > 30 µM

C[C@H](O)CNc1nccc(-n2ccnc2Cc2cccc(NC(=O)Cc3ccc(-c4ccccc4)cc3)c2)n1 [Example 11, (S)-2-([1,1′-biphenyl]-4-yl)-N-(3-((1-(2-((2-hydroxypropyl)amino)pyrimidin-4-yl)-1H-imidazol-2-yl)methyl)phenyl)acetamide]
GI50 [1]: 11.2 µM
GI50 [2]: 10 µM

C[C@H](O)CNc1nccc(-n2ccnc2C(=O)c2cccc(NC(=O)c3cc(N4CCN(C)CC4)cc(C(F)(F)F)c3)c2)n1 [Example 28, (S)—N-(3-(1-(2-((2-hydroxypropyl)amino)pyrimidin-4-yl)-1H-imidazole-2-carbonyl)phenyl)-3-(4-methylpiperazin-1-yl)-5-(trifluoromethyl)benzamide]
GI50 [1]: 27.8 µM

C[C@H](O)CNc1nccc(-n2ccnc2Cc2cccc(NC(=O)c3ccc(Cl)cc3)c2)n1 [Example 6, (S)-4-chloro-N-(3-((1-(2-((2-hydroxypropyl)amino)pyrimidin-4-yl)-1H-imidazol-2-yl)methyl)phenyl)benzamide]
GI50 [1]: 10.2 µM
GI50 [2]: > 30 µM

Cc1cc(C)cc(C(=O)Nc2cccc(Cc3nccn3-c3ccnc(NC[C@H](C)O)n3)c2)c1 [Example 2, (S)—N-(3-((1-(2-((2-hydroxypropyl)amino)pyrimidin-4-yl)-1H-imidazol-2-yl)methyl)phenyl)-3,5-dimethylbenzamide]
GI50 [2]: 16.8 µM

C[C@H](O)CNc1nccc(-n2ccnc2Cc2cccc(NC(=O)c3ccc(-c4ccccc4)cc3)c2)n1 [Example 12, (S)—N-(3-((1-(2-((2-hydroxypropyl)amino)pyrimidin-4-yl)-1H-imidazol-2-yl)methyl)phenyl)-[1,1′-biphenyl]-4-carboxamide]
potency against A375P, in words [1]: large potencies; also recorded: better potencies than Sorafenib
GI50 [1]: 0.6 µM
potency against U937, in words [2]: large potencies; also recorded: better potencies than Sorafenib
GI50 [2]: 1.68 µM

C[C@H](O)CNc1nccc(-n2ccnc2Cc2cccc(NC(=O)c3cc(N4CCOCC4)cc(C(F)(F)F)c3)c2)n1 [Example 20, (S)—N-(3-((1-(2-((2-hydroxypropyl)amino)pyrimidin-4-yl)-1H-imidazol-2-yl)methyl)phenyl)-3-morpholino-5-(trifluoromethyl)benzamide]
GI50 [1]: 6.6 µM
GI50 [2]: 9.7 µM

C[C@H](O)CNc1nccc(-n2ccnc2C(=O)c2ccc(NC(=O)c3cccc(Cl)c3)cc2)n1 [Example 34, (S)-3-chloro-N-(4-(1-(2-((2-hydroxypropyl)amino)pyrimidin-4-yl)-1H-imidazole-2-carbonyl)phenyl)benzamide]
GI50 [1]: 5.92 µM

C[C@H](O)CNc1nccc(-n2ccnc2Cc2cccc(NC(=O)Nc3cccc(Cl)c3)c2)n1 [Example 21, (S)-1-(3-chlorophenyl)-3-(3-((1-(2-((2-hydroxypropyl)amino)pyrimidin-4-yl)-1H-imidazol-2-yl)methyl)phenyl)urea]
GI50 [1]: 19.2 µM
GI50 [2]: 1.73 µM

Cc1c(C)c2c(c(C)c1O)CC[C@](C)(C(=O)Nc1cccc(Cc3nccn3-c3ccnc(NC[C@H](C)O)n3)c1)O2 [Example 16, (R)-6-hydroxy-N-(3-((1-(2-(((S)-2-hydroxypropyl)amino)pyrimidin-4-yl)-1H-imidazol-2-yl)methyl)phenyl)-2,5,7,8-tetramethylchromane-2-carboxamide]
GI50 [2]: 23.6 µM

C[C@H](O)CNc1nccc(-n2ccnc2Cc2cccc(NC(=O)Nc3ccc(Cl)c(Cl)c3)c2)n1 [Example 22, (S)-1-(3,4-dichlorophenyl)-3-(3-((1-(2-((2-hydroxypropyl)amino)pyrimidin-4-yl)-1H-imidazol-2-yl)methyl)phenyl)urea]
GI50 [1]: 26.2 µM
GI50 [2]: 15.3 µM

C[C@H](O)CNc1nccc(-n2ccnc2Cc2cccc(NC(=O)c3ccc(Cl)c(C(F)(F)F)c3)c2)n1 [Example 19, (S)-4-chloro-N-(3-((1-(2-((2-hydroxypropyl)amino)pyrimidin-4-yl)-1H-imidazol-2-yl)methyl)phenyl)-3-(trifluoromethyl)benzamide]
potency against A375P, in words [1]: large potencies
GI50 [1]: 3.3 µM
potency against U937, in words [2]: large potencies
GI50 [2]: 6.83 µM

C[C@H](O)CNc1nccc(-n2ccnc2C(=O)c2ccc(NC(=O)c3ccc(Cl)cc3)cc2)n1 [Example 33, (S)-4-chloro-N-(4-(1-(2-((2-hydroxypropyl)amino)pyrimidin-4-yl)-1H-imidazole-2-carbonyl)phenyl)benzamide]
GI50 [1]: 7.07 µM

C[C@H](O)CNc1nccc(-n2ccnc2Cc2cccc(NC(=O)c3ccc4[nH]nnc4c3)c2)n1 [Example 9, (S)—N-(3-((1-(2-((2-hydroxypropyl)amino)pyrimidin-4-yl)-1H-imidazol-2-yl)methyl)phenyl)-1H-benzo[d][1,2,3]triazole-5-carboxamide]
GI50 [1]: > 30 µM
GI50 [2]: 18.5 µM

COc1ccc(-c2ccc(C(=O)Nc3cccc(C(=O)c4nccn4-c4ccnc(NC[C@H](C)O)n4)c3)o2)cc1 [Example 26, (S)—N-(3-(1-(2-((2-hydroxypropyl)amino)pyrimidin-4-yl)-1H-imidazole-2-carbonyl)phenyl)-5-(4-methoxyphenyl)furan-2-carboxamide]
GI50 [1]: 9.39 µM
GI50 [2]: 2.55 µM

C[C@H](O)CNc1nccc(-n2ccnc2Cc2cccc(NC(=O)c3ccccc3Sc3ccccc3C#N)c2)n1 [Example 15, (S)-2-((2-cyanophenyl)thio)-N-(3-((1-(2-((2-hydroxypropyl)amino)pyrimidin-4-yl)-1H-imidazol-2-yl)methyl)phenyl)benzamide]
GI50 [2]: 10 µM

C[C@H](O)CNc1nccc(-n2ccnc2C(=O)c2ccc(NC(=O)Nc3ccc(Cl)c(Cl)c3)cc2)n1 [Example 39, (S)-1-(3,4-dichlorophenyl)-3-(4-(1-(2-((2-hydroxypropyl)amino)pyrimidin-4-yl)-1H-imidazole-2-carbonyl)phenyl)urea]
GI50 [1]: > 30 µM
GI50 [2]: 11.6 µM

C[C@H](O)CNc1nccc(-n2ccnc2Cc2cccc(NC(=O)Cc3ccccc3F)c2)n1 [Example 4, (S)-2-(2-fluorophenyl)-N-(3-((1-(2-((2-hydroxypropyl)amino)pyrimidin-4-yl)-1H-imidazol-2-yl)methyl)phenyl)acetamide]
GI50 [1]: 7.45 µM
GI50 [2]: > 30 µM
